Laboratory results: patent US11878970B2, “Allosteric chromenone inhibitors of phosphoinositide 3-kinase (PI3K) for the treatment of disease” (Petra Pharma Corporation, priority 2021, dated 2024)

Tests used:
[1] = biological target: PI3K-α (PIK3CA) in MDA-MB-453 cells (Homo sapiens, UniProt P42336); experiment: PI3K-alpha kinase (PIK3CA) in vitro cell based assay, MDA-MB-453 cells, SureFire Ultra AlphaLisa; conditions: read-out: PI3K-α (PIK3CA) in vitro cell based assay IC50
Method: PI3K-Alpha Kinase (PIK3CA) Activity In Vitro Cell Based Assay and Determining IC50 Values for Inhibitors
The MDA-MB-453 (ATCC-HTB-131) cell line was obtained from the American Type Culture Collection (Manassas, VA). Cells were maintained in Dulbecco's Modified Eagle Media (DMEM, Gibco 11965-092) supplemented with 10% Fetal Bovine Serum, heat inactivated (FBS HI, Gibco 10082-147), 1× non-essential amino acids (NEAA, Gibco 11140-050), and 1 mM sodium pyruvate (Gibco 11360-070). Cultures were maintained in a humidified incubator at 37° C. under 5% CO2/95% air.
For compound testing in 0% FBS, MDA-MB-453 cells were seeded at a density of 1.5×10^4 cells per well in white 384-well plates in 20 μl of Minimum Essential Media (MEM) assay media with 1×NEAA, 1 mM sodium pyruvate, and 1 μg/mL human insulin (Sigma I9278). Compounds dissolved in 10 mM stock solutions in DMSO were serially diluted 1:3 in DMSO to generate a 10-point dilution series and plated using an acoustic liquid handler system (Echo 550 Series Liquid Handler, Labcyte). A 5× intermediate compound dilution plate in MEM with 1×NEAA and 1 mM sodium pyruvate (150 μM starting compound concentration in 1.5% DMSO) was then prepared. Five μl of the intermediate serially diluted compounds were added to the cell plate to final concentrations ranging from […] in 0.3% DMSO. 0.3% DMSO alone was used to establish the maximum (MAX) signal and GDC-0032 at a final concentration of 1 μM was used as a reference compound for the minimum (MIN) signal. After 3 hours treatment, the medium was removed, and the cells lysed in 10 μL of 1× SureFire Lysis buffer with shaking for 10 minutes at room temperature. The Acceptor Mix (Reaction Buffer 1+Reaction Buffer 2+Activation Buffer+SureFire Ultra Acceptor Beads) was prepared by diluting Activation buffer 25-fold in combined Reaction Buffer 1 and Reaction Buffer 2. The Acceptor beads were diluted 50-fold in the combined Reaction Buffers. Five μL of Acceptor Mix was added to each well, the plate was sealed and covered with foil and incubated for 1 hour at room temperature. The Donor Mix (dilution buffer+SureFire Ultra Donor Beads) was prepared by diluting Donor Beads 50-fold in dilution buffer. Five μL of the Donor Mix was added to each well and the plate sealed and covered with foil and incubated for 1 hour at room temperature in the dark. The plates were read on a Neo2 plate reader instrument from Biotek using standard AlphaLisa settings. Compounds were tested in duplicate and the average % inhibition at each compound concentration was used to generate a single dose response curve. The data were processed using the Genedata-Screener tool. Relative IC50 values were determined using luminescence units by calculating percent inhibition with respect to the in-plate “MIN” (GDC-0032 reference control) and “MAX” (DMSO) controls. The data was analyzed using a 4-parameter nonlinear logistic equation (four-parameter logistic concentration-response curve): Y=bottom+[(top−bottom)/1+(X/IC50)slope] where Y=% inhibition, X=concentration of inhibitor, bottom=minimum value of y attained by curve-fit, top=maximum value of y attained by curve-fit and slope=steepness of curve at the IC50. % Inhibition=[(signal at X−median Min)/(median Max−median Min)]×100 IC50: concentration of compound that reduces a given response (ligand binding, enzyme response) by 50%. Relative IC50: concentration giving half the compound's maximum response.

[2] = biological target: T1, PI3K-α (PIK3CA) H1047R mutant, p110α/p85α complex (Homo sapiens, UniProt P42336, H1047R); experiment: PI3K-alpha kinase (PIK3CA) biochemical activity, ADP-Glo, H1047R mutant; conditions: Soy PI lipid substrate
T1 construct: Recombinant, catalytically active human full length PIK3KA Wild-type and H1047R mutant; 6×His (N); purchased EMD Millipore Sigma 14-792M
T1 sequence (P42336 whole entry H1047R): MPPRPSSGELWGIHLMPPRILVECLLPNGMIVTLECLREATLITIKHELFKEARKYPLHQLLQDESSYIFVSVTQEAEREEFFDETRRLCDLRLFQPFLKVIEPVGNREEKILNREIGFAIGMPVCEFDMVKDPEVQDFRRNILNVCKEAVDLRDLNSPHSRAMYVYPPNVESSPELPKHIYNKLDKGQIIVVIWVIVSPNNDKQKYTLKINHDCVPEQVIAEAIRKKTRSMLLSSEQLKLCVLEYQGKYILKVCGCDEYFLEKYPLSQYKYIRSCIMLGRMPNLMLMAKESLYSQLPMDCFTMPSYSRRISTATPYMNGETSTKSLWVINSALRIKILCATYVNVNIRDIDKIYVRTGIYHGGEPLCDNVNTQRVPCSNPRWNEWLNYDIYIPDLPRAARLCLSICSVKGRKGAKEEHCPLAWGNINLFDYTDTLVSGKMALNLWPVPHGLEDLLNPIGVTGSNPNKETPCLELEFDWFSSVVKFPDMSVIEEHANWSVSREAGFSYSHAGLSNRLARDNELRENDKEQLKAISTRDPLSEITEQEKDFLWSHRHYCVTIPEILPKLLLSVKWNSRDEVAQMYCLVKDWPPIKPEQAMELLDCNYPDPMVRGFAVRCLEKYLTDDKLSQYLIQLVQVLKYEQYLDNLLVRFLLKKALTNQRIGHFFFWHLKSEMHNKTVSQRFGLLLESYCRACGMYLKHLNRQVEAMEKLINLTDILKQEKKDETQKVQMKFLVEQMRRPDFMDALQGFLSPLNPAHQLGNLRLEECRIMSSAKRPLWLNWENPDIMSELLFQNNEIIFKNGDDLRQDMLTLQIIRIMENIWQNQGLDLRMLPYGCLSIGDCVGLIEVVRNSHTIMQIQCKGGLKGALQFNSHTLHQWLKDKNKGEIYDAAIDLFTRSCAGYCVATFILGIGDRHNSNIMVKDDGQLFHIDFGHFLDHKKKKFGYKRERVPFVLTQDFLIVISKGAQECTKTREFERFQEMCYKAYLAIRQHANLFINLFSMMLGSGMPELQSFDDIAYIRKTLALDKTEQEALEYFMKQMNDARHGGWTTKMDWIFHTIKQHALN
T1 sequence (P27986 whole entry partner): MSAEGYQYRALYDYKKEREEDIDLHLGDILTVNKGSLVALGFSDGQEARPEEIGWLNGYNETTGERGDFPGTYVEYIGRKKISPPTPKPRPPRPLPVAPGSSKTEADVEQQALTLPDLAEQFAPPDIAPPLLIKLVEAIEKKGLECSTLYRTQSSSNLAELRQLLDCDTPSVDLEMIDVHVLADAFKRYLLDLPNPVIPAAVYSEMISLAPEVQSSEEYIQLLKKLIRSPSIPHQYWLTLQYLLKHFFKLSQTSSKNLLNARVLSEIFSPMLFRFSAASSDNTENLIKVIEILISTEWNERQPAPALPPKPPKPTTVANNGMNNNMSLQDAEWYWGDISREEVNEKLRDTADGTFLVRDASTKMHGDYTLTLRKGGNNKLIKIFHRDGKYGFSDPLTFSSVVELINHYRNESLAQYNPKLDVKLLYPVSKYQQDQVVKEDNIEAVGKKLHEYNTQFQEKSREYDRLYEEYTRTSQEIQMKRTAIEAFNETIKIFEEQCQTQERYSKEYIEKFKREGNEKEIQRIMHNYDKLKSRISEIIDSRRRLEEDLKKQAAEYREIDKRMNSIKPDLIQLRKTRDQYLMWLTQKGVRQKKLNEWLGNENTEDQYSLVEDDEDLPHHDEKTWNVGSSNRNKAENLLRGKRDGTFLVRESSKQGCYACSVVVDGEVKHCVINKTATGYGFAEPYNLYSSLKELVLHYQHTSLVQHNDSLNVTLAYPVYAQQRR
Outline: (§1)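 ADP formation measured by ADP-Glo luminescence after reaction at 27 °C to about 10% ATP turnover, using 20 uM ATP, 50 uM PIP2diC8 or soy PI lipid, HEPES pH 7.4 with MgCl2. Enzyme (1-5 nM WT or H1047R p110α/p85α) and compound preincubated 1 h first; 10-point 1:3 curves fitted four-parameter for IC50.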

[3] = biological target: T2, PI3K-α (PIK3CA) wild-type (WT), p110α/p85α complex (Homo sapiens, UniProt P42336); experiment: PI3K-alpha kinase (PIK3CA) biochemical activity, ADP-Glo, wild-type; conditions: Soy PI lipid substrate
T2 construct: Recombinant, catalytically active human full length PIK3KA Wild-type and H1047R mutant; 6×His (N); purchased EMD Millipore Sigma 14-602M
Outline: as §1

PI3K-α (PIK3CA) in MDA-MB-453 cells, sequence (P27986 2-724): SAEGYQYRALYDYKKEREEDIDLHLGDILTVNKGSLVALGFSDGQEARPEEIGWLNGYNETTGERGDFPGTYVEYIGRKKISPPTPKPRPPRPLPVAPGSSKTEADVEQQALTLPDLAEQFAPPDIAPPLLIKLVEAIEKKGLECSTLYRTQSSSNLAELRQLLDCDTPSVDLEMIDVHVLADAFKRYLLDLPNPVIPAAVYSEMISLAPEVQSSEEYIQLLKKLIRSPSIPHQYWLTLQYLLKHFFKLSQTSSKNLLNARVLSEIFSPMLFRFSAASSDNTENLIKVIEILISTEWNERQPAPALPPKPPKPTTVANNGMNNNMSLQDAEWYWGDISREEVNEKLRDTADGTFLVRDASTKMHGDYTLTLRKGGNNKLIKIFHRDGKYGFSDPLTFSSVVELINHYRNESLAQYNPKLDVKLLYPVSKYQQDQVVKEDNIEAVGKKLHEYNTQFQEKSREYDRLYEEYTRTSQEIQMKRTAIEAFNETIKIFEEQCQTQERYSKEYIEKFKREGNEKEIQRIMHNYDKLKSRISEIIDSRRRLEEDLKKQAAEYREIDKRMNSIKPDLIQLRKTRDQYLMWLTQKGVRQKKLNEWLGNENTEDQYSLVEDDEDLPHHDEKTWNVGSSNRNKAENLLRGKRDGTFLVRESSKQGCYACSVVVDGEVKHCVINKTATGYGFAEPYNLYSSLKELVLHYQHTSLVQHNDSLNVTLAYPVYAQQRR
PI3K-α (PIK3CA) in MDA-MB-453 cells, sequence (P42336 whole entry): as the sequence (P42336 whole entry H1047R) above, with R1047H counted along it

| IC50 [1] [nM] | IC50 [2] [nM] | IC50 [3] [nM] | SMILES |
| --- | --- | --- | --- |
| < 50 | < 500 | 500 to 1000 | Cc1cc(C(C)Nc2ccccc2C(=O)O)c2oc(-c3ccn4nccc4c3)cc(=O)c2c1 (single isomer, unassigned) [Example 113, 2-[1-(6-Methyl-4-oxo-2-pyrazolo[1,5-a]pyridin-5-yl-chromen-8-yl)ethylamino]benzoic acid] |
| 50 to 100 | < 500 | 1000 to 5000 | COc1ccc2cc(-c3cc(=O)c4cc(C)cc([C@@H](C)Nc5ccccc5C(=O)O)c4o3)ccc2n1 [Example 249, 2-[[(1R)-1-[2-(2-Methoxy-6-quinolyl)-6-methyl-4-oxo-chromen-8-yl]ethyl]amino]benzoic acid] |
| < 50 | < 500 | 1000 to 5000 | Cc1cc(C(C)Nc2ccccc2C(=O)O)c2oc(-c3ccc4ccn(C)c4c3)cc(=O)c2c1 (single isomer, unassigned) [Example 158, 2-[1-[6-Methyl-2-(1-methylindol-6-yl)-4-oxo-chromen-8-yl]ethylamino]benzoic acid] |
| 50 to 100 | < 500 | 500 to 1000 | Cc1cc([C@@H](C)Nc2ccc(F)c(F)c2C(=O)O)c2oc(-c3ccc4nn(C)cc4c3)c(C)c(=O)c2c1 [Example 204, 6-[[(1R)-1-[3,6-Dimethyl-2-(2-methylindazol-5-yl)-4-oxo-chromen-8-yl]ethyl]amino]-2,3-difluoro-benzoic acid] |
| 100 to 500 | < 500 | 1000 to 5000 | Cc1cc(C(C)Nc2ccccc2C(=O)O)c2oc(-c3cnc4ccccn34)cc(=O)c2c1 (single isomer, unassigned) [Example 145, 2-[1-(2-Imidazo[1,2-a]pyridin-3-yl-6-methyl-4-oxo-chromen-8-yl)ethylamino]benzoic acid] |
| < 50 | < 500 | 1000 to 5000 | Cc1cc(C(C)Nc2ccccc2C(=O)O)c2oc(-c3ccc4nn(C)cc4n3)cc(=O)c2c1 (single isomer, unassigned) [Example 54, 2-[1-[6-Methyl-2-(2-methylpyrazolo[4,3-b]pyridin-5-yl)-4-oxo-chromen-8-yl]ethylamino]benzoic acid] |
| < 50 | < 500 | 1000 to 5000 | Cc1cc([C@@H](C)Nc2cccc(F)c2C(=O)O)c2oc(-c3ccc4nc(C)sc4n3)cc(=O)c2c1 [Example 257, 2-Fluoro-6-[[(1R)-1-[6-methyl-2-(2-methylthiazolo[5,4-b]pyridin-5-yl)-4-oxo-chromen-8-yl]ethyl]amino]benzoic acid] |
| 50 to 100 | 500 to 1000 | 1000 to 5000 | COc1ccc2nc(-c3cc(=O)c4cc(C)cc([C@@H](C)Nc5ccccc5C(=O)O)c4o3)ccc2n1 [Example 255, 2-[[(1R)-1-[2-(6-Methoxy-1,5-naphthyridin-2-yl)-6-methyl-4-oxo-chromen-8-yl]ethyl]amino]benzoic acid] |
| > 500 | 5000 to 10000 | 5000 to 10000 | Cc1cc(C(C)Nc2ccccc2C(=O)O)c2oc(-c3ccc4nccn4n3)cc(=O)c2c1 (single isomer, unassigned) [Example 35, 2-[1-(2-Imidazo[1,2-b]pyridazin-6-yl-6-methyl-4-oxo-chromen-8-yl)ethylamino]benzoic acid] |
| 100 to 500 | < 500 | 1000 to 5000 | Cc1cc([C@@H](C)Nc2ccc(C)nc2C(=O)O)c2oc(-c3ccc4nc(C)cn4c3)cc(=O)c2c1 [Example 225, 6-Methyl-3-[[(1R)-1-[6-methyl-2-(2-methylimidazo[1,2-a]pyridin-6-yl)-4-oxo-chromen-8-yl]ethyl]amino]pyridine-2-carboxylic acid] |
| 50 to 100 | < 500 | 500 to 1000 | C[C@@H](Nc1ccc(Cl)nc1C(=O)O)c1cc(C(F)(F)F)cc2c(=O)cc(-c3ccc4nn(C)cc4c3)oc12 [Example 169, 6-Chloro-3-[[(1R)-1-[2-(2-methylindazol-5-yl)-4-oxo-6-(trifluoromethyl)chromen-8-yl]ethyl]amino]pyridine-2-carboxylic acid] |

| SMILES | IC50 [1] [nM] | IC50 [2] [nM] | IC50 [3] [nM] |
| --- | --- | --- | --- |
| Cc1cc(C(C)Nc2ccccc2C(=O)O)c2oc(-c3ccc4oc(=O)[nH]c4c3)cc(=O)c2c1 (single isomer, unassigned) [Example 24, 2-[1-[6-Methyl-4-oxo-2-(2-oxo-3H-1,3-benzoxazol-5-yl)chromen-8-yl]ethylamino]benzoic acid] | 50 to 100 | < 500 | 1000 to 5000 |
| Cc1cc(C(C)Nc2ccccc2C(=O)O)c2oc(-c3ccc4[nH]c(C)nc4c3)cc(=O)c2c1 (single isomer, unassigned) [Example 65, 2-[1-[6-Methyl-2-(2-methyl-1H-benzimidazol-5-yl)-4-oxo-chromen-8-yl]ethylamino]benzoic acid] | 100 to 500 | < 500 | 1000 to 5000 |
| Cc1cc(C(C)Nc2ccccc2C(=O)O)c2oc(-c3cc4ccccc4[nH]3)c(C)c(=O)c2c1 (single isomer, unassigned) [Example 52, 2-[1-[2-(1H-Indol-2-yl)-3,6-dimethyl-4-oxo-chromen-8-yl]ethylamino]benzoic acid] | < 50 | < 500 | 500 to 1000 |
| Cc1cc([C@@H](C)Nc2ccccc2C(=O)O)c2oc(-c3cc(C(F)(F)F)c4nn(C)cc4c3)cc(=O)c2c1 [Example 198, 2-[[(1R)-1-[6-Methyl-2-[2-methyl-7-(trifluoromethyl)indazol-5-yl]-4-oxo-chromen-8-yl]ethyl]amino]benzoic acid] | 50 to 100 | < 500 | < 500 |
| Cc1cc([C@@H](C)Nc2cccc(F)c2C(=O)O)c2oc(-c3cc4cnccc4o3)c(C)c(=O)c2c1 [Example 264, 2-Fluoro-6-[[(1R)-1-(2-furo[3,2-c]pyridin-2-yl-3,6-dimethyl-4-oxo-chromen-8-yl)ethyl]amino]benzoic acid; 2,2,2-trifluoroacetic acid] | < 50 | < 500 | < 500 |
| Cc1cc(C(C)Nc2ccccc2C(=O)O)c2oc(-c3ccc4cnn(C)c4c3)cc(=O)c2c1 (single isomer, unassigned) [Example 25, 2-[1-[6-Methyl-2-(1-methylindazol-6-yl)-4-oxo-chromen-8-yl]ethylamino]benzoic acid] | 50 to 100 | < 500 | < 500 |
| Cc1cc([C@@H](C)Nc2ccc(Cl)nc2C(=O)O)c2oc(-c3nc4ccccc4o3)c(C)c(=O)c2c1 [Example 263, 3-[[(1R)-1-[2-(1,3-benzoxazol-2-yl)-3,6-dimethyl-4-oxo-chromen-8-yl]ethyl]amino]-6-chloro-pyridine-2-carboxylic acid; 2,2,2-trifluoroacetic acid] | < 50 | < 500 | 1000 to 5000 |
| Cc1cc(C(C)Nc2ccccc2C(=O)O)c2oc(-c3ccc4c(c3)c(C)nn4C)cc(=O)c2c1 (single isomer, unassigned) [Example 59, 2-[1-[2-(1,3-Dimethylindazol-5-yl)-6-methyl-4-oxo-chromen-8-yl]ethylamino]benzoic acid] | < 50 | < 500 |  |
